Consider four compounds from patent US20250326753A1, “DUAL CXCR4-BTK INHIBITORS” (X4 Pharmaceuticals, Inc., priority 2022, published 2025).

Assay [1] relates to 340 wild-type protein kinases. Put plainly: PanQinase wild-type kinase panel, selectivity score. It is filed as biochemical. The conditions noted are these: 1 μM; share of kinases with residual activity <50%; 340 wild-type protein kinase assays. As to the method:
Screening procedures were performed in accordance with the company's on-line protocol [accessed on-line Mar.
The selectivity score for a particular compound at a particular concentration was calculated by using the following formula: Selectivity Score=(count of data points <50%)/(total number of data points).

Another assay concerns the target BTK (Homo sapiens, UniProt Q06187). The assay can be described thus: BTK Kinase Enzyme System with ADP-Glo Kinase Assay. It is filed as biochemical. Also noted: Recombinant full-length human BTK was expressed by baculovirus in Sf9 insect cells; His (N); purchased Promega V9071; host or cells: Sf9 insect cells (baculovirus). The conditions noted are these: 50 μM ATP. As to the method: Inhibition of BTK activity was evaluated using the BTK Kinase Enzyme System in combination with the ADP-Glo™ Kinase Assay Kit (V9071, Promega), according to manufacturer's instructions. Luminescence was detected on a PerkinElmer EnVision Multimode Plate Reader.
Recombinant full-length human BTK was expressed by baculovirus in Sf9 insect cells using an N-terminal His tag, MW ˜78 kDa. Substrate solution contained Poly (4:1 Glu, Tyr) Peptide Substrate. BTK Kinase Buffer consisted of: 40 mM Tris, pH 7.5; 20 mM MgCl2; 0.1 mg/ml BSA; 2 mM MnCl2; 50 μM DTT. ADP-Glo™ Reagents were thawed at ambient temperature; components of BTK Enzyme System, ADP and ATP were thawed on ice. Final assay conditions used 3 ng BTK, 50 μM ATP, and 0.2 mg/mL substrate. Compounds were tested at 11 dose points in duplicates, in 3-fold dilution with top concentration at 10 μM.
Assay performance was evaluated according to the reference compound Staurosporine, which was within 3-5 fold of published results and between different tests, with a Z′ value larger than 0.5, where applicable.
For orientation: ADP-Glo turns the ADP formed in a reaction into a luminescent signal.

The target in assay [2] is T1, CXCR4 (Homo sapiens, UniProt P61073). Put plainly: Chemokine (CXCL12-AF647) binding inhibition assay, Jurkat cells expressing CXCR4. The conditions noted are these: CXCL12-AF647 25 ng/ml, read-out: IC50 CXCL-12 binding Jurkat. As to the method: Jurkat cells expressing CXCR4 were washed once with assay buffer (Hanks' balanced salt solution with 20 mM HEPES buffer and 0.2% bovine serum albumin, pH 7.4) and then incubated for 15 min at room temperature with the test compounds diluted in assay buffer at dose-dependent concentrations. Subsequently, CXCL12-AF647 (25 ng/ml) was added to the compound-incubated cells. The cells were incubated for 30 min at room temperature. Thereafter, the cells were washed twice in assay buffer, fixed in 1% paraformaldehyde in PBS, and analyzed on the FL4 channel of a FACSCalibur flow cytometer equipped with a 635-nm red diode laser (Becton Dickinson, San Jose, CA, USA).
T1 sequence (P61073 whole entry): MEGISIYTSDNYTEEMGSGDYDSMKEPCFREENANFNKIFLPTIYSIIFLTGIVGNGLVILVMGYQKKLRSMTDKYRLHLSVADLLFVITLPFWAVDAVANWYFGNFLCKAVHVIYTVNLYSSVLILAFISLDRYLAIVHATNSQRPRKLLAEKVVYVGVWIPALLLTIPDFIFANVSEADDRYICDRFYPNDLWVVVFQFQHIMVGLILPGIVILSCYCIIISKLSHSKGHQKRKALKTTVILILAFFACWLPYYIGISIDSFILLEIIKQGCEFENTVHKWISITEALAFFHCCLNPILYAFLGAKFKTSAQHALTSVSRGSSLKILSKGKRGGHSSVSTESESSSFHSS
The percentages of inhibition of CXCL12-AF647 binding were calculated according to the formula: [1−((MFI−MFINC)/(MFIPC−MFINC))]×100 where MFI is the mean fluorescence intensity of the cells incubated with CXCL 12-AF647 in the presence of the inhibitor, MFINC is the mean fluorescence intensity measured in the negative control (i.e., autofluorescence of unlabeled cells), and MFIPC is the mean fluorescence intensity of the positive control (i.e., cells exposed to CXCL12-AF647 alone).

Assay [3] addresses T1, CXCR4. Put plainly: Intracellular CXCL-12-induced calcium mobilization assay (FLIPR), U87.CXCR4 cells. It is filed as cell-based. On the set-up: expressed in transfected cells; host or cells: U87 (U87.CXCR4). The conditions noted are these: CXCL-12 25-50 ng/ml, read-out: IC50 CXCL-12 Ca2+ flux U87.CXCR4+. As to the method: Intracellular calcium mobilization induced by chemokines or chemokine-derived peptides were evaluated using a calcium responsive fluorescent probe and a FLIPR system. The CXCR-4 transfected U87 cell line (U87.CXCR4) cells were seeded in gelatine-coated black-wall 96-well plates at 20,000 cells per well and incubated for 12 hours. Cells were then loaded with the fluorescent calcium probe Fluo-2 acetoxymethyl at 4 μM final concentration in assay buffer (Hanks' balanced salt solution with 20 mM HEPES buffer and 0.2% bovine serum albumin, pH 7.4) for 45 min at 37° C. The intracellular calcium mobilization induced by the CXCL-12 (25-50 ng/ml) was then measured at 37° C. by monitoring the fluorescence as a function of time in all the wells simultaneously using a fluorometric imaging plate reader (FLIPR Tetra, Molecular Devices).
On the technique in general: Calcium assays in cells follow changes in intracellular calcium, usually with a dye or a luminescent sensor.

Assay [4] has as its target T2, BTK (Bruton tyrosine kinase) (Homo sapiens, UniProt Q06187).
T2 construct: GST or His (the text leaves open which); purchased Reaction Biology Europe GmbH Lot 012,11; host or cells: Sf9 insect cells or E. coli (not resolved)
The assay can be described thus: BTK screening assay (33PanQinase Activity Assay, radiometric). The conditions noted are these: Inhibition of BTK, radiometric 33PanQinase Activity Assay, 3 μM ATP, 10 concentrations in singlicate, top 10 μM; read-out: 33PanQinase ® Radiometric IC50. The class given is biochemical.

Another assay relates to Ramos cell line. Put plainly: Ramos cell line viability assay (CellTiter-Glo, 72 hr). The class given is cell-based. The conditions noted are these: Homo sapiens. As to the method: Inhibition of non-Hodgkin lymphoma B-cell proliferation by compounds of the present invention was evaluated in a Ramos cell line. Ramos is a B lymphocyte cell line that was derived from a patient with Burkitt's Lymphoma.
Cell viability was analyzed with the CellTiter-Glo® Luminescent Cell Viability Assay Kit (G7572, Promega), according to the manufacturer's instruction. Cells were seeded into a 96-well/384-well plate and then incubated in 5% CO2 at 37° C. overnight. Compounds were added to the cells, with 9-10 dose points in duplicates in 3-fold dilution from a top concentration of 30 μM, and incubated in 5% CO2 at 37° C. for 72 hr. The 96-well/384-well plate was equilibrated at room temperature for 30 min. 50 μl/25 μl of CellTiter-Glo® Reagent was added to each well and mixed for 2 min on an orbital shaker to induce cell lysis. The 96-well/384-well plate was incubated at room temperature for 10 min to stabilize luminescent signal. Luminescence was detected on a PerkinElmer EnVision Multimode Plate Reader as relative luminescence units (RLU).
(ATP-based viability assays read luminescence as a measure of living cells.)

For a further assay, the system named is GBM-U251MG. Put plainly: GBM cell proliferation, U251MG (cell-based cancer efficacy assays). The conditions noted are these: Homo sapiens, U-251; Table 6B.
The next assay has as its system U-87 MG. Put plainly: Glioblastoma multiforme cell proliferation assay (CellTiter Glo), U-87 MG. It is filed as cell-based. The conditions noted are these: Homo sapiens, Table 6B. As to the method:
(§1) Inhibition of glioblastoma multiforme cell proliferation by compounds of the present invention was evaluated in U-87 MG (ATCC; Cat. No. HTB-14; Lot. No. 5018014) and T98G (ATCC; Cat. No. CRL-1690; Lot. No. 58267513) cell lines. These are adherent cell lines isolated from glioblastoma multiforme/malignant glioma, which express both CXCR4 and BTK (see Zhou et al. 2002 and Yue et al. 2017).
(§2) Cell viability was analyzed with the CellTiter Glo Cell assay kit ([…], Cat. No. G7573, Lot. No. 0000474103), according to the manufacturer's instruction.
(§3) U-87 MG and T98G cells were seeded onto 384-well opaque-walled clear bottom plates (Corning, Cat. No. 3765, Lot. No. 34319047) in EMEM (Invitrogen, Cat. No. 11095-080; Lot. No. 2276656) supplemented with 10% FBS (Invitrogen, Cat. No. 10099-141C, Lot. No. 2145169CP), at a seeding density of 1000 or 1200 cells per well, respectively, and then incubated in 5% CO2 at 37° C. overnight.
(§4) Compounds were prepared as stock solutions of 30 mM in DMSO (Sigma, Cat. No. 276855-1L. Lot. No. SHBL5610). Compounds were added to the cells, with 10 dose points in duplicates, in 3-fold dilution from a top concentration of 30 μM (final DMSO concentration […]), and incubated in 5% CO2 at 37° C. for 96 hr.
(§5) The 384-well plates were equilibrated at room temperature for approximately 30 min. 25 μl of CellTiter-Glo® Reagent was added to each well and mixed for 10 min on an orbital shaker to induce cell lysis. The 384-well plates were incubated at room temperature for 10 min to stabilize luminescent signal. Luminescence was detected on a PerkinElmer EnVision Multimode Plate Reader (measurement time 0.1s) as relative luminescence units (RLU).

The test system of a further assay is T98G. Put plainly: Glioblastoma multiforme cell proliferation assay (CellTiter Glo), T98G. The class given is cell-based. The conditions noted are these: Homo sapiens, Table 6B. As to the method: as §1, §2, §3, §4, §5
The mark [5] stands for this setting: class, read-out: Ramos viability IC50.

Like-named read-outs stand apart in the source and are kept apart here.

T2 sequence (Q06187 whole entry): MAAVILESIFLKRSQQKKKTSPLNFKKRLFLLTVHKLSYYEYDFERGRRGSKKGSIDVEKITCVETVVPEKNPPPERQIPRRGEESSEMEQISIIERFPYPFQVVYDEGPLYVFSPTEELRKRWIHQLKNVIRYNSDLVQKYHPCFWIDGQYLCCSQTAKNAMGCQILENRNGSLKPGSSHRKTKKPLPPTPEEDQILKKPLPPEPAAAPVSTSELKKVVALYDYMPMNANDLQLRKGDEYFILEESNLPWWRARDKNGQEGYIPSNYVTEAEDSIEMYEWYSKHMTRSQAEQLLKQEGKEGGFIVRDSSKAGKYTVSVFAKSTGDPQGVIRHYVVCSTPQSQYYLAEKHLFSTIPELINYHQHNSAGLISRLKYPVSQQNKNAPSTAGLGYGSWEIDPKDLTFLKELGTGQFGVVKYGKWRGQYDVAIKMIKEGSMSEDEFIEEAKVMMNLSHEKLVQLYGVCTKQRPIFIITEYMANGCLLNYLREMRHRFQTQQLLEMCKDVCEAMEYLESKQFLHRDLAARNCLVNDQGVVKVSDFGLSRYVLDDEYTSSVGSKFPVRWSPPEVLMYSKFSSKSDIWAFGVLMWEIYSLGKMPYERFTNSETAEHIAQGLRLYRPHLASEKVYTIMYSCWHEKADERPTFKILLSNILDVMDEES
Chain of BTK (Q06187 whole entry): as above

For `Cc1cc(-c2ccnc(Nc3cnn(C)c3)n2)ccc1CNC(=O)N1CC(OC(C)C)C1` [BIIB-068, reference compound], in assay [1], the “Selectivity Score” value was determined as 0.009.
Take `Cc1cccnc1[C@H]1CCC[C@@H](c2ncccc2C)N1CCNC1CN(C(=O)c2ccc(-c3cc4c(-c5cccc(NC(=O)c6ccccc6)c5C)ncnc4[nH]3)cc2)C1` [Compound I-9]: the IC50 on BTK was 100 to 1000 nM; at CXCR4 [2] it was 1 to 100 nM; on CXCR4 [3], 1 to 100 nM; in assay [4] it was 100 to 1000 nM; in the assay with Ramos cell line (setting [5]) it was 2000 to 4000 nM; in the assay with Ramos cell line (read-out: IC50) it was 3540 nM.
`Cc1cc(-c2ccnc(Nc3cnn(CCCN4[C@@H](c5ncccc5C)CCC[C@H]4c4ncccc4C)c3)n2)ccc1CNC(=O)N1CC(OC(C)C)C1` [Compound I-12, N-(4-(2-(1-(3-((2S,6R)-2,6-bis(3-methylpyridin-2-yl)piperidin-1-yl)propyl)-1H-pyrazol-4-ylamino)pyrimidin-4-yl)-2-methylbenzyl)-3-isopropoxyazetidine-1-carboxamide]: the IC50 on BTK was 1 to 100 nM; at CXCR4 [2] it was 1 to 100 nM; on CXCR4 [3], 1000 to 2500 nM; in [4] it was 1 to 100 nM; in the assay with Ramos cell line (setting [5]), 2000 to 4000 nM; in the assay on Ramos cell line (read-out: IC50), 2780 nM.
With `Cc1cccnc1[C@@H]1CCC[C@H](c2cn3c(N4CCN(C)CC4)cccc3n2)N1C` [Compound I-19], the Emax in the assay with GBM-U251MG was 6%; in the assay with U-87 MG (read-out: GBM-U87MG Cell Proliferation Emax %) it was 19%; in the assay with T98G (read-out: GBM-T-98G Cell Proliferation Emax %) it was 16%. Also, the IC50 was 1670 nM in the assay on GBM-U251MG, 6470 nM in the assay with U-87 MG (read-out: GBM-U87MG Cell Proliferation IC50) and greater than 30000 nM in the assay on T98G (read-out: GBM-T-98G Cell Proliferation IC50).
